{"source": "the supplement of paper PMC9013687", "key": {"[1]": {"tested_on": "Danio rerio embryo", "description": "(§1)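 Zebrafish embryos (UFZ-OBI strain) were exposed from 2 hpf for 48 h (2 dpf) or 96 h (4 dpf) at 28 °C; spontaneous tail coiling was scored at 25 hpf. Morphological features from automated image analysis (FishInspector), heart rate and locomotor response were fitted with drc models. Quantal endpoints were dichotomised at 2.5 SD from controls and fitted with a log-logistic model; heart rate, pigmentation and STC were normalised to the replicate control mean. Betamethasone was tested as betamethasone dipropionate, diflorasone as diflorasone diacetate.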"}, "[2]": {"tested_on": "Danio rerio embryo", "conditions": "exposure time: 4 dpf", "description": "as §1"}, "[3]": {"tested_on": "Danio rerio embryo", "conditions": "exposure time: 4 dpf", "description": "as §1", "remark": "listed apart in the source"}, "[4]": {"tested_on": "Danio rerio embryo", "assay": "EC20 LMR dark; higher = less potent", "conditions": "exposure time: 4 dpf", "description": "as §1"}, "[5]": {"tested_on": "Danio rerio embryo", "assay": "EC10 Any effect; higher = less potent", "description": "as §1"}, "[6]": {"tested_on": "Danio rerio embryo", "assay": "EC20 Any effect; higher = less potent", "description": "as §1"}, "[7]": {"tested_on": "Danio rerio embryo", "assay": "EC50 Yolk sac size_Increase", "description": "as §1"}, "[8]": {"tested_on": "Danio rerio embryo", "assay": "EC50 Eye size_Decrease", "conditions": "exposure time: 4 dpf", "description": "as §1"}, "[9]": {"tested_on": "Danio rerio embryo", "assay": "spontaneous tail coiling frequency (coils/min/embryo); higher = more spontaneous movement", "conditions": "25 hpf", "description": "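Spontaneous tail coilings of zebrafish embryos exposed from 2 hpf were recorded at 24-25 hpf in 1-min videos and detected by a KNIME workflow from grey-value variance. Betamethasone was tested as the dipropionate, diflorasone as the diacetate.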"}, "[10]": {"tested_on": "Danio rerio embryo", "assay": "EC50 Otolith-eye distance_Decrease", "conditions": "exposure time: 4 dpf", "description": "as §1"}, "[11]": {"tested_on": "Danio rerio embryo", "assay": "EC10 Lack of SB; higher = less potent", "conditions": "exposure time: 4 dpf", "description": "as §1"}, "[12]": {"tested_on": "Danio rerio embryo", "assay": "EC10 Yolk sac size_Increase; higher = less potent", "description": "as §1"}, "[13]": {"tested_on": "Danio rerio embryo", "assay": "EC10 Eye size_Decrease; higher = less potent", "conditions": "exposure time: 4 dpf", "description": "as §1"}, "[14]": {"tested_on": "Danio rerio embryo", "assay": "EC50 Pericard size_Increase", "description": "as §1"}, "[15]": {"tested_on": "Danio rerio embryo", "assay": "EC10 LMR dark; higher = less potent", "conditions": "exposure time: 4 dpf", "description": "as §1"}, "[16]": {"tested_on": "Danio rerio embryo", "assay": "EC10 Bladder size_Decrease; higher = less potent", "conditions": "exposure time: 4 dpf", "description": "as §1"}, "[17]": {"tested_on": "Danio rerio embryo", "assay": "EC10 Pericard size_Increase; higher = less potent", "description": "as §1"}, "[18]": {"tested_on": "Danio rerio embryo", "assay": "EC10 Curvature_Increase; higher = less potent", "description": "as §1"}, "[19]": {"tested_on": "Danio rerio embryo", "assay": "EC20 Eye size_Decrease; higher = less potent", "conditions": "exposure time: 4 dpf", "description": "as §1"}, "[20]": {"tested_on": "Danio rerio embryo", "assay": "EC20 Lack of SB; higher = less potent", "conditions": "exposure time: 4 dpf", "description": "as §1"}, "[21]": {"tested_on": "Danio rerio embryo", "assay": "EC20 Bladder size_Decrease; higher = less potent", "conditions": "exposure time: 4 dpf", "description": "as §1"}, "[22]": {"tested_on": "Danio rerio embryo", "assay": "EC20 Pericard size_Increase; higher = less potent", "description": "as §1"}, "[23]": {"tested_on": "Danio rerio embryo", "conditions": "exposure time: 4 dpf", "description": "as §1", "remark": "listed apart in the source"}, "[24]": {"tested_on": "Danio rerio embryo", "assay": "EC50 Bladder size_Decrease", "conditions": "exposure time: 4 dpf", "description": "as §1"}, "[25]": {"tested_on": "Danio rerio embryo", "assay": "EC20 Yolk sac size_Increase; higher = less potent", "description": "as §1"}, "[26]": {"tested_on": "Danio rerio embryo", "assay": "EC10 Otolith-eye distance_Decrease; higher = less potent", "conditions": "exposure time: 4 dpf", "description": "as §1"}, "[27]": {"tested_on": "Danio rerio embryo", "assay": "EC20 Heart rate; higher = less potent", "conditions": "exposure time: 4 dpf", "description": "as §1"}, "[28]": {"tested_on": "Danio rerio embryo", "assay": "EC10 Eye-jaw distance_Decrease; higher = less potent", "conditions": "exposure time: 4 dpf", "description": "as §1"}, "[29]": {"tested_on": "Danio rerio embryo", "assay": "EC50 Curvature_Increase", "description": "as §1"}, "[30]": {"tested_on": "Danio rerio embryo", "assay": "EC20 Otolith-eye distance_Decrease; higher = less potent", "conditions": "exposure time: 4 dpf", "description": "as §1"}, "[31]": {"tested_on": "Danio rerio embryo", "assay": "EC20 Eye-jaw distance_Decrease; higher = less potent", "conditions": "exposure time: 4 dpf", "description": "as §1"}, "[32]": {"tested_on": "Danio rerio embryo", "assay": "EC50 Eye-jaw distance_Decrease", "conditions": "exposure time: 4 dpf", "description": "as §1"}, "[33]": {"tested_on": "Danio rerio embryo", "assay": "EC20 Body length_Decrease; higher = less potent", "conditions": "exposure time: 4 dpf", "description": "as §1"}, "[34]": {"tested_on": "Danio rerio embryo", "assay": "EC50 Body length_Decrease", "conditions": "exposure time: 4 dpf", "description": "as §1"}, "[35]": {"tested_on": "Danio rerio embryo", "assay": "EC10 Heart rate; higher = less potent", "conditions": "exposure time: 4 dpf", "description": "as §1"}, "[36]": {"tested_on": "Danio rerio embryo", "assay": "EC20 Curvature_Increase; higher = less potent", "description": "as §1"}, "[37]": {"tested_on": "Danio rerio embryo", "assay": "EC10 Body length_Decrease; higher = less potent", "conditions": "exposure time: 4 dpf", "description": "as §1"}}, "note": "± gives the standard deviation of the averaged measurements."}
{"smiles": "CC1(C)O[C@@H]2[C@@H](CO[C@@]3(COS(N)(=O)=O)OC(C)(C)O[C@@H]23)O1", "note": "[Topiramate]", "values": [{"measurement": "EC50 Any effect", "setting": "[1]; exposure time: 2 dpf", "value": 321, "unit": "µM"}, {"measurement": "EC50 Any effect", "setting": "[1]; exposure time: 4 dpf", "value": 94.9, "unit": "µM"}, {"measurement": "EC50 Heart rate", "setting": "[2]", "value": 87.8, "unit": "µM"}, {"measurement": "EC50 LMR dark", "setting": "[3]", "value": 461, "unit": "µM"}, {"measurement": "EC20 LMR dark", "setting": "[4]", "value": 331, "unit": "µM"}, {"measurement": "EC10 Any effect", "setting": "[5]; exposure time: 2 dpf", "value": 22, "unit": "µM"}, {"measurement": "EC10 Any effect", "setting": "[5]; exposure time: 4 dpf", "value": 22.9, "unit": "µM"}, {"measurement": "EC20 Any effect", "setting": "[6]; exposure time: 2 dpf", "value": 59.1, "unit": "µM"}, {"measurement": "EC20 Any effect", "setting": "[6]; exposure time: 4 dpf", "value": 38.7, "unit": "µM"}, {"measurement": "EC50 Yolk sac size Increase", "setting": "[7]; exposure time: 2 dpf", "value": 990, "unit": "µM"}, {"measurement": "EC50 Yolk sac size Increase", "setting": "[7]; exposure time: 4 dpf", "value": 303, "unit": "µM"}, {"measurement": "EC50 Eye size Decrease", "setting": "[8]", "value": 242, "unit": "µM"}, {"measurement": "spontaneous tail coiling frequency", "setting": "[9]; 49.6 µM", "value": 0.85}, {"measurement": "spontaneous tail coiling frequency", "setting": "[9]; 81.8 µM", "value": "1.99 ± 1.7"}, {"measurement": "spontaneous tail coiling frequency", "setting": "[9]; 135 µM", "value": "2.03 ± 1.4"}, {"measurement": "spontaneous tail coiling frequency", "setting": "[9]; 222.7 µM", "value": 0.24}, {"measurement": "spontaneous tail coiling frequency", "setting": "[9]; 367.5 µM", "value": "1.31 ± 0.99"}, {"measurement": "spontaneous tail coiling frequency", "setting": "[9]; 606.3 µM", "value": "2.44 ± 2"}, {"measurement": "spontaneous tail coiling frequency", "setting": "[9]; 1000 µM", "value": 1.46}, {"measurement": "spontaneous tail coiling frequency", "setting": "[9]; 1000.4 µM", "value": 2.49}, {"measurement": "spontaneous tail coiling frequency", "setting": "[9]; 1473.4 µM", "value": 2.59}, {"measurement": "EC50 Otolith-eye distance Decrease", "setting": "[10]", "value": 80.9, "unit": "µM"}, {"measurement": "EC10 Lack of SB", "setting": "[11]", "value": 29.7, "unit": "µM"}, {"measurement": "EC10 Yolk sac size Increase", "setting": "[12]; exposure time: 2 dpf", "value": 601, "unit": "µM"}, {"measurement": "EC10 Yolk sac size Increase", "setting": "[12]; exposure time: 4 dpf", "value": 98.8, "unit": "µM"}, {"measurement": "EC10 Eye size Decrease", "setting": "[13]", "value": 57.7, "unit": "µM"}, {"measurement": "EC50 Pericard size Increase", "setting": "[14]; exposure time: 2 dpf", "value": 208, "unit": "µM"}, {"measurement": "EC50 Pericard size Increase", "setting": "[14]; exposure time: 4 dpf", "value": 563, "unit": "µM"}, {"measurement": "EC10 LMR dark", "setting": "[15]", "value": 273, "unit": "µM"}, {"measurement": "EC10 Bladder size Decrease", "setting": "[16]", "value": 28.2, "unit": "µM"}, {"measurement": "EC10 Pericard size Increase", "setting": "[17]; exposure time: 2 dpf", "value": 11.2, "unit": "µM"}, {"measurement": "EC10 Pericard size Increase", "setting": "[17]; exposure time: 4 dpf", "value": 210, "unit": "µM"}, {"measurement": "EC10 Curvature Increase", "setting": "[18]; exposure time: 2 dpf", "value": 986, "unit": "µM"}, {"measurement": "EC10 Curvature Increase", "setting": "[18]; exposure time: 4 dpf", "value": 455, "unit": "µM"}, {"measurement": "EC20 Eye size Decrease", "setting": "[19]", "value": 97.9, "unit": "µM"}, {"measurement": "EC20 Lack of SB", "setting": "[20]", "value": 40.7, "unit": "µM"}, {"measurement": "EC20 Bladder size Decrease", "setting": "[21]", "value": 34.7, "unit": "µM"}, {"measurement": "EC20 Pericard size Increase", "setting": "[22]; exposure time: 2 dpf", "value": 33, "unit": "µM"}, {"measurement": "EC20 Pericard size Increase", "setting": "[22]; exposure time: 4 dpf", "value": 302, "unit": "µM"}, {"measurement": "EC50 Lack of SB", "setting": "[23]", "value": 69.7, "unit": "µM"}, {"measurement": "EC50 Bladder size Decrease", "setting": "[24]", "value": 49.5, "unit": "µM"}, {"measurement": "EC20 Yolk sac size Increase", "setting": "[25]; exposure time: 2 dpf", "value": 722, "unit": "µM"}, {"measurement": "EC20 Yolk sac size Increase", "setting": "[25]; exposure time: 4 dpf", "value": 149, "unit": "µM"}, {"measurement": "EC10 Otolith-eye distance Decrease", "setting": "[26]", "value": 24.4, "unit": "µM"}, {"measurement": "EC20 Heart rate", "setting": "[27]", "value": 28.3, "unit": "µM"}, {"measurement": "EC10 Eye-jaw distance Decrease", "setting": "[28]", "value": 133, "unit": "µM"}, {"measurement": "EC50 Curvature Increase", "setting": "[29]; exposure time: 2 dpf", "value": 1250, "unit": "µM"}, {"measurement": "EC50 Curvature Increase", "setting": "[29]; exposure time: 4 dpf", "value": 927, "unit": "µM"}, {"measurement": "EC20 Otolith-eye distance Decrease", "setting": "[30]", "value": 37.9, "unit": "µM"}, {"measurement": "EC20 Eye-jaw distance Decrease", "setting": "[31]", "value": 165, "unit": "µM"}, {"measurement": "EC50 Eye-jaw distance Decrease", "setting": "[32]", "value": 236, "unit": "µM"}, {"measurement": "EC20 Body length Decrease", "setting": "[33]", "value": 46.4, "unit": "µM"}, {"measurement": "EC50 Body length Decrease", "setting": "[34]", "value": 142, "unit": "µM"}, {"measurement": "EC10 Heart rate", "setting": "[35]", "value": 13.3, "unit": "µM"}, {"measurement": "EC20 Curvature Increase", "setting": "[36]; exposure time: 2 dpf", "value": 1080, "unit": "µM"}, {"measurement": "EC20 Curvature Increase", "setting": "[36]; exposure time: 4 dpf", "value": 591, "unit": "µM"}, {"measurement": "EC10 Body length Decrease", "setting": "[37]", "value": 24.1, "unit": "µM"}]}
